According to article PMC4237514, “Novel amino-β-lactam derivatives as potent cholesterol absorption inhibitors” (European Journal of Medicinal Chemistry, 2014):

How the values were obtained:
[1] = MTT cytotoxicity assay in hNPC1L1/MDCKII cells; type: cell-based; details: dog, MDCKII cells stably expressing human NPC1L1 (hNPC1L1/MDCKII), read-out: LC50, hNPC1L1/MDCKII
Experimental: (§1) Cytotoxicity of amino alcohols 5, 6 and their diastereoisomeric mixture 5/6 was analyzed using MTT cell proliferation assay and the LC50 values were determined in MDCKII wild type, hNPC1L1/MDCKII, and HepG2 cells (Table 2). MDCKII cells stably expressing human Niemann-Pick C1-like protein 1 (hNPC1L1/MDCKII) (Figure S1) are a pharmacologically validated system for investigating NPC1L1-mediated cholesterol uptake. The LC50 values were higher than 100 μM and considered nontoxic in all three cell lines. […] In addition, we tested the in vitro cytotoxicity of ezetimibe 1 and compounds 5, 6, and 5/6 (70:30) in combination with micelles and found all LC50 values to be above 100 μM (Figure S2).
(§2) Madin–Darby Canine Kidney II (MDCKII) cells, MDCKII cells stably expressing human NPC1L1 (hNPC1L1/MDCKII), and human HepG2 liver cells were maintained in DMEM (Dulbecco's Modified Eagle Medium, Invitrogen, USA) containing 100 units/mL penicillin and 100 μg/mL streptomycin supplemented with 10% FCS (Sigma–Aldrich, Germany). The cells were grown at 37 °C in a humidified 5% CO2 incubator. Stable transfection of MDCKII cells with human NPC1L1 protein was performed using Lipofectamine LTX (Invitrogen, USA) according to the manufacturer's protocol. Selection with 1 mg/mL G418 (Sigma–Aldrich, Germany) was started 2 days after transfection. The concentration of G418 was decreased to 500 μg/mL after 14 days. Stably transfected cells were maintained in DMEM containing 100 units/mL penicillin and 100 μg/mL streptomycin supplemented with 10% FCS and 500 μg/mL G418.
MDCKII, hNPC1L1/MDCKII, and HepG2 cells were seeded in 96-well microtiter plates on day 0 at densities of 3000 cells/well. On day 1, tested compounds (73 mM stock solution in DMSO) were added in five consecutive 10-fold dilutions (10^−8 to 10^−4 mol/L) and incubated for 72 h. Cytotoxicity of the compounds was assessed on day 4 by the MTT cell proliferation assay (Sigma–Aldrich, Germany) which detects mitochondrial dehydrogenase activity in viable cells. The results are expressed as LC50 and the values for each compound were calculated from dose–response curves using linear regression analysis. Each concentration was tested in quadruplicate in three independent experiments. Toxicity of the compounds in combination with micelles was also tested using the same method. MDCKII and hNPC1L1/MDCKII were seeded in 96-well microtiter plates (150 μL medium/well) at a density of 2 × 10^5 cells/mL medium 24 h before the experiment. Micelles were prepared according to the modified method reported by Field et al.. In brief, 0.25 mM oleic acid, 50 μM cholesterol, 10 μM compactin, 50 μM mevalonate, 5 mM Na-taurocholate (Sigma–Aldrich, Germany) in DMEM/10% FCS were mixed and sonicated. […] Thereafter, cytotoxicity was determined using the MTT assay.

[2] = pKa by spectrophotometric titration; type: physicochemical; details: λ 247 nm, pH 6–12, 20 °C
Experimental: We determined pKa values of the amino alcohols 5 (Fig. 9) and 6 (data not shown) using spectrophotometric titration.
Stock solution of amino alcohols 5 and 6 (160 μL, 2 mg/mL methanol) was added to NaCl solution in water (20 mL, 0.1 mol/L), thus resulting in a solution of each amino alcohol 5 and 6 in concentration of 4 × 10^−5 mol/L. Furthermore, solutions of NaOH (0.1 mol/L, 1 mol/L and 2 mol/L) were prepared in NaCl solution in water (100 mL, 0.1 mol/L). NaOH solutions (1.5–20 μL) were added to each solution of amino alcohol 5 or 6, pH values measured and UV spectra (λ 200–350 nm) recorded at pH 6–12. The titrations were performed at rt (20 °C) and inflection points of sigmoid curves at λ 247 nm were calculated as pKa values for both amino alcohols.

MDCKII wildtype cells = test: In vitro [3H]cholesterol uptake assay in MDCKII wildtype cells; type: cell-based, Canine; details: Figure S3
Experimental: Medium A contained DMEM plus 100 units/mL penicillin and 100 μg/mL streptomycin supplemented with 5% lipoprotein-deficient serum (density > 1.21 g/mL, prepared from FCS by ultracentrifugation). Cholesterol Replenishing Medium (Medium B) was prepared according to the modified method reported by Field et al.. In brief, 0.25 mM oleic acid, 50 μM free cholesterol, 10 μM compactin, 50 μM mevalonate, 5 mM Na-taurocholate (Sigma–Aldrich, Germany), and [^3H]cholesterol (0.18 μCi/mL medium, [1,2–3H(N)] cholesterol, 1 mCi/mL (ARC Inc., USA)) in Medium A were mixed and sonicated. Following the micellar formation, compounds 1, 5, 6, 5/6 (70:30), and 6/5 (85:15) (73 mM stock solution in DMSO) were added to Medium B and vortexed to obtain the final concentrations (10, 30, 60, 90, 120, 150, 200 μM).
MDCKII wildtype and hNPC1L1/MDCKII cells were seeded in 24-well plates at a density of 5 × 10^5 cells/mL medium (500 μL medium/well) in Medium A 24 h before the treatment. […] Cells were lysed and radioactivity in the lysate (100 μL) was determined by liquid scintillation counting. Protein concentrations of the lysates were determined with the DC Protein Assay (Bio-Rad, USA). The results were calculated as cpm/mg protein and expressed as percentage of inhibition compared to untreated cells. […]

MDCKII cells = test: MTT cytotoxicity assay in MDCKII wild type cells; type: cell-based; details: 72 h
Experimental: as §1, §2
MDCKII, hNPC1L1/MDCKII, and HepG2 cells were seeded in 96-well microtiter plates on day 0 at densities of 3000 cells/well. On day 1, tested compounds (73 mM stock solution in DMSO) were added in five consecutive 10-fold dilutions (10^−8 to 10^−4 mol/L) and incubated for 72 h. Cytotoxicity of the compounds was assessed on day 4 by the MTT cell proliferation assay (Sigma–Aldrich, Germany) which detects mitochondrial dehydrogenase activity in viable cells. The results are expressed as LC50 and the values for each compound were calculated from dose–response curves using linear regression analysis. Each concentration was tested in quadruplicate in three independent experiments. Toxicity of the compounds in combination with micelles was also tested using the same method. MDCKII and hNPC1L1/MDCKII were seeded in 96-well microtiter plates (150 μL medium/well) at a density of 2 × 10^5 cells/mL medium 24 h before the experiment. Micelles were prepared according to the modified method reported by Field et al.. In brief, 0.25 mM oleic acid, 50 μM cholesterol, 10 μM compactin, 50 μM mevalonate, 5 mM Na-taurocholate (Sigma–Aldrich, Germany) in DMEM/10% FCS were mixed and sonicated. Following the micellar formation, compounds 1, 5, 6, and 5/6 (70:30) (73 mM stock solution in DMSO) were added to the medium and vortexed to obtain the final concentrations of the compounds (25, 50, 100, 150, 200 μM) and applied to the cells for 1 h. Thereafter, cytotoxicity was determined using the MTT assay.

## O=C1[C@H](NC[C@@H](O)c2ccc(F)cc2)[C@@H](c2ccc(O)cc2)N1c1ccc(F)cc1 [Compound 6, (3R,4R)-3-[(2S)-2-(4-fluorophenyl)-2-hydroxyethylamino]-1-(4-fluorophenyl)-4-(4-hydroxyphenyl)azetidin-2-one]
[1]
  CC50 at 72 h: > 100 µM
[2]
  pKa: 9.35

## O=C1[C@H](NCC(O)c2ccc(F)cc2)[C@@H](c2ccc(O)cc2)N1c1ccc(F)cc1 (mixture of isomers) [5/6 (70:30), (3R,4R)-3-[(2R/S)-2-(4-fluorophenyl)-2-hydroxyethylamino]-1-(4-fluorophenyl)-4-(4-hydroxyphenyl)azetidin-2-one]
[1]
  CC50 at 72 h: > 100 µM

## O=C1[C@H](NC[C@H](O)c2ccc(F)cc2)[C@@H](c2ccc(O)cc2)N1c1ccc(F)cc1 [Compound 5]
[1]
  CC50 at 72 h: > 100 µM
[2]
  pKa: 9.35

## O=C1[C@H](CC[C@H](O)c2ccc(F)cc2)[C@@H](c2ccc(O)cc2)N1c1ccc(F)cc1 [Compound 1, ezetimibe, reference compound]
[1]; 72 h
  CC50 at 96 h: 62.3 µM
MDCKII wildtype cells
  effect on cholesterol uptake: no effect
MDCKII cells
  LC50, MDCKII: no toxicity
